Assay results reported in patent publication US7514438B2, “Melanin concentrating hormone receptor antagonist” (Amgen, Inc., priority 2003, dated 2009).
Like-named read-outs stand apart in the source and are kept apart here.

Columns and labels:
[1] = target: T1, human MCH 1 receptor (hMCH1R) (Homo sapiens, UniProt Q99705); assay: 125I-MCH ligand binding assay, hMCH
T1 construct: expressed in transfected cells; host or cells: HEK 293 (membranes)
Protocol: (§1) Human embryonic kidney cells (293 total) expressing either human, rat, or mouse MCH receptor were harvested from 150 mm culture dishes using PBS. Spinning at 1500 rpm for 2 minutes initially pelleted cells. The resulting pellet was then homogenized in 15 mL ice cold sucrose buffer (25 mM HEPES, 0.3 M sucrose, pH 7.4) with a motorized, glass fitted, Teflon® homogenizer. The homogenate was centrifuged at 48,000×g at 4° C. for 10 minutes, resuspended in 15 mL assay buffer (25 mM HEPES, 10 mM mgCl2, 0.2% BSA, 0.1 mg/mL STI, 0.1 mg/mL Pefabloc®, 1 μM Phosphoramidon, pH 7.4) with a Tissue-Tearor® (Biospec Products) and centrifuged again at 48,000×g for 10 minutes. The pellet was homogenized for a third time in 15 mL assay buffer using the Tissue-Tearor® and again centrifuged at 48,000×g for 10 minutes. The resulting pellet was resuspended in assay buffer at a wet weight concentration of 10-20 mg/mL.
(§2) Binding assays were determined as described below using mouse, rat or human MCH 1 receptors (mMCH1R, rMCH1R, and hMCH1R, respectively) expressed in HEK 293; IC50 values were calculated.
(§3) Binding assays were performed in 96-well U-bottom plates. Membranes (100 μg tissue) were incubated at 30° C. for 90 minutes in assay buffer with various peptides in the presence of 0.2 nM ^125I native-MCH (Perkin-Elmer Life Sciences, Boston, Mass.) in 100 μL total volume. Non-specific binding was assessed in the presence of 1 μM cold native-MCH. The reaction was terminated by rapid filtration through Unfilter-96 GF/C glass fiber filter plates (FilterMate® 196 Harvester, Packard Instrument Co., Meriden, Conn.) pre-soaked in PBS/0.5% BSA, followed by three washes with 300 μL ice-cold water. Bound radioactivity was determined using a TopCount® microplate scintillation and luminescence counter (Packard Instrument Co., Meriden, Conn.). Nonlinear regression analyses of drug concentration curves were performed using GraphPad Prism® (GraphPad Software, Inc., San Diego, Calif.).

[2] = target: T2, rat MCH 1 receptor (rMCH1R) (Rattus norvegicus, UniProt P97639); assay: 125I-MCH ligand binding assay, rMCH
T2 construct: expressed in transfected cells; host or cells: HEK 293 (membranes)
Protocol: as §1, §2, §3

rat MCH1 receptor = rat MCH1 receptor (Rattus norvegicus, UniProt P97639); assay: rMCH FLIPR calcium mobilization assay (CHOK1-Gqi cells); format: cell-based; parameters: expressed in transfected cells; host or cells: CHOK1-Gqi
Protocol: Pharmacological analyses were conducted using either a HT-PS100 device (Axiom Biotechnologies, San Diego, Calif.), which provides high-resolution dose-response fluorometric measurements of [Ca^++]i mobilization, or using a FLIPR® device (Molecular Devices, Sunnyvale, Calif.).
Materials: Pharmacological analysis was conducted using a FLIPR® device (Molecular Devices, Sunnyvale, Calif.). CHOK1-Gqi cells were stably transfected with the rat MCH1 receptor and maintained under G418 antibiotic pressure. FLIPR® assay buffer consisted of phenol red-free DMEM+2.5 mM probenecid. […]. Test compounds were prepared as 10 mM stocks in 100% DMSO and diluted to a top end working concentration of 10 μM in 96 well black, flat bottom, collagen-I coated plates (Becton Dickinson, Bedford, Mass.).
Methods: CHOK1-Gqi cells stably expressing MCH1R were maintained in Dulbeco's modified Eagle's medium (GIBCO/Life Technologies, Rockville, Md.) supplemented with 2 mM glutamine and 10% dialyzed fetal bovine serum (HyCLone, Logan, Utah) at 37° C., 5% CO2. Cells were harvested by 10′ treatment with Versene (GIBCO/Life Technologies) followed by trituration, washing twice with cold (4° C.) hybridoma medium (Serum/Protein free, with L-glutamine, sodium bicarbonate, MOPS buffer) (Sigma-Aldrich Corp, St. Louis, Mo.) and replated onto 96 well black, flat bottom, collagen-I coated plates to a density of 10,000 cells/well. The cells were then loaded with the fluorescent calcium indicator Fura-2 (Molecular Probes, Eugene, Oreg.) at 1.6 μM for 60′ at room temperature. The loaded cells were then washed twice with 90 μl/well of wash buffer (1×HBSS, 20 mM HEPES, 2.5 mM probenecid).
Receptor-stimulated intracellular calcium responses were detected using FLIPR® by monitoring increases in the Fura-2 fluorescence response.
Test compounds were screened for MCH1R activity in the FLIPR® for both agonist and antagonist action. Agonist mode challenges were conducted at a maximum gradient concentration of 1 μM. Antagonist activity was tested by 10 min pre-incubation of cells at a compound concentration of defined to be 300× the EC50 of MCH (typically 1 μM), with subsequent introduction of MCH at a concentration 5-fold of EC50 as determined in preliminary experiments. […].
Several fixed concentrations of antagonist compounds were prepared in 10-fold increments, and presented to the cells in a gradient of increasing MCH concentration. Values for compound pA2 were calculated by linear regression of MCH EC50s as a function of antagonist concentration.

human MCH receptor = target: T3, human MCH receptor (Homo sapiens, UniProt Q99705); assay: hMCH FLIPR calcium mobilization assay; format: cell-based; conditions: 100 μM or less list; read-out: Ki in the hMCH FLIPR assay
T3 construct: expressed in transfected cells

[3] = HEK 293 membranes, 0.2 nM 125I native-MCH, 100 μM or less list, read-out: IC50 in the hMCH binding assay
[4] = HEK 293 membranes, 0.2 nM 125I native-MCH, 100 nM or less list, read-out: IC50 in the rMCH binding assay
[5] = HEK 293 membranes, 0.2 nM 125I native-MCH, 100 μM or less list, read-out: IC50 in the rMCH binding assay
[6] = CHOK1-Gqi cells, rat MCH1 receptor, 100 μM or less list, read-out: Ki in the rMCH FLIPR assay
[7] = HEK 293 membranes, 0.2 nM 125I native-MCH, 100 nM or less list, read-out: IC50 in the hMCH binding assay

T2 sequence (P97639 whole entry): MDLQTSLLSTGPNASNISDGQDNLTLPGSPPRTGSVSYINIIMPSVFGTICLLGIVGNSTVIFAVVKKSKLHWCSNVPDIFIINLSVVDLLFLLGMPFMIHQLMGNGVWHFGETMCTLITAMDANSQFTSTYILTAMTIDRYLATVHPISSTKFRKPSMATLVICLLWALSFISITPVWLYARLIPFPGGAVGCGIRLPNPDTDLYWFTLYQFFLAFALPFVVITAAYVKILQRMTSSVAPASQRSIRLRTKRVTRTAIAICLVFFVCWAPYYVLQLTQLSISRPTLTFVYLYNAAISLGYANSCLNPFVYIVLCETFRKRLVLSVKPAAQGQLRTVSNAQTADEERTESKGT
Sequence of rat MCH1 receptor (P97639 whole entry): as above
T1 sequence (Q99705 whole entry): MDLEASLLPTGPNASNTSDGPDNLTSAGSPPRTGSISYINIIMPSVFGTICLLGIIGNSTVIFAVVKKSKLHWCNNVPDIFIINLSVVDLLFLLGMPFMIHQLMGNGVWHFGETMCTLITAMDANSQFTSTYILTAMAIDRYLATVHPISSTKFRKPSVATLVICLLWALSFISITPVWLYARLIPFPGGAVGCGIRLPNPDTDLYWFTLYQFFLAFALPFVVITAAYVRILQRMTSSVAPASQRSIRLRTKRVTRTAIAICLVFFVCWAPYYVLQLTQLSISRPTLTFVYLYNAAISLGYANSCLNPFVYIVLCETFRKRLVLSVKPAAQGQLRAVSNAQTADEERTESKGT
T3 sequence (Q99705 whole entry): as above

SMILES: Cc1cccc(C)c1-n1nnnc1C1(N2CCN(C/C=C/c3ccccc3)CC2)CCCCC1 [Compound 92, 1-{1-[1-(2,6-dimethylphenyl)-1H-tetrazol-5-yl]cyclohexyl)-4-(3-phenylallyl)piperazine]
- IC50 [1]: ≤ 100 µM
- IC50 [2]: ≤ 100 µM
- Ki (rat MCH1 receptor): ≤ 100 µM

SMILES: Cc1cccc(C)c1-n1nnnc1C(c1ccc(-c2ccccc2)cc1)N1CCN(C/C=C/c2ccccc2)CC1 (stereo not drawn) [Compound 11, 1-{biphenyl-4-yl-[1-(2,6-dimethyiphenyl)-1H-tetrazol-5-yl]methyl}-4-(3-phenylallyl)piperazine]
- IC50 [1, 3]: ≤ 100 µM
- IC50 [2, 4]: ≤ 0.1 µM
- IC50 [2, 5]: ≤ 100 µM
- Ki (rat MCH1 receptor; CHOK1-Gqi cells, rat MCH1 receptor, 100 nM or less list, read-out: Ki in the rMCH FLIPR assay): ≤ 0.1 µM
- Ki (rat MCH1 receptor; [6]): ≤ 100 µM

SMILES: Cc1cccc(C)c1-n1nnnc1[C@H](c1cccc(Oc2cc(Cl)cc(Cl)c2)c1)N1CCN(C/C=C/c2ccccc2)CC1 (racemic) [Compound 87, 1-{[3-(3,5-dichloro-phenoxy)-phenyl]-[1-(2,6-dimethylphenyl)-1H-tetrazol-5-yl]methyl}-4-(3-phenylallyl)piperazine]
- IC50 [1, 3]: ≤ 100 µM
- Ki (human MCH receptor): ≤ 100 µM
- Ki (rat MCH1 receptor; [6]): ≤ 100 µM

SMILES: Cc1cccc(C)c1-n1nnnc1[C@H](c1cccc(C(F)(F)F)c1)N1CCN(CC=C(c2ccccc2)c2ccccc2)CC1 (racemic) [Compound 144, 1-[[1-(2,6-dimethylphenyl)-1H-tetrazol-5-yl]-(3-trifluoromethylphenyl)methyl]-4-(3,3-diphenylallyl)piperazine]
- IC50 [1, 7]: ≤ 0.1 µM
- IC50 [1, 3]: ≤ 100 µM
- IC50 [2, 4]: ≤ 0.1 µM
- IC50 [2, 5]: ≤ 100 µM
- Ki (human MCH receptor): ≤ 100 µM
- Ki (rat MCH1 receptor; [6]): ≤ 100 µM

SMILES: Cc1cccc(C)c1-n1nnnc1[C@H](c1cccc(C(F)(F)F)c1)N1CCN(Cc2c[nH]c3ccccc23)CC1 (racemic) [Compound 150, 3-{4-[[1-(2,6-dimethylphenyl)-1H-tetrazol-5-yl]-(3-trifluoromethylphenyl)methyl]piperazin-1-ylmethyl}-1H-indole]
- IC50 [1, 3]: ≤ 100 µM
- IC50 [2, 5]: ≤ 100 µM
- Ki (human MCH receptor): ≤ 100 µM
- Ki (rat MCH1 receptor; [6]): ≤ 100 µM

SMILES: Cc1cccc(C)c1-n1nnnc1[C@@H](c1ccc(-n2ccnc2)cc1)N1CCN(C/C=C/c2ccccc2)CC1 (stereo in doubt) [Compound 134, 1-[[1-(2,6-dimethylphenyl)-1H-tetrazol-5-yl]-(4-imidazol-1-ylphenyl)methyl]-4-(3-phenylallyl)piperazine]
- IC50 [1, 7]: ≤ 0.1 µM
- IC50 [1, 3]: ≤ 100 µM
- IC50 [2, 4]: ≤ 0.1 µM
- IC50 [2, 5]: ≤ 100 µM
- Ki (human MCH receptor): ≤ 100 µM
- Ki (rat MCH1 receptor; [6]): ≤ 100 µM

SMILES: Cc1cccc(C)c1-n1nnnc1[C@H](c1cccc(Oc2ccccc2)c1)N1CCN(C/C=C/c2ccccc2)CC1 (racemic) [Compound 12, 1-[[1-(2,6-dimethyiphenyl)-1H-tetrazol-5-yl]-(3-phenoxyphenyl)methyl]-4-(3-phenylallyl)piperazine]
- IC50 [1, 3]: ≤ 100 µM
- IC50 [2, 5]: ≤ 100 µM
- Ki (rat MCH1 receptor; [6]): ≤ 100 µM

SMILES: Cc1cccc(C)c1-n1nnnc1[C@H](c1ccncc1)N1CCN(C/C=C/c2ccccc2)CC1 (racemic) [Compound 86, 1-{[1-(2,6-dimethylphenyl)-1H-tetrazol-5-yl]pyridin-4-ylmethyl}-4-(3-phenylallyl)piperazine]
- IC50 [1, 3]: ≤ 100 µM
- Ki (human MCH receptor): ≤ 100 µM
- Ki (rat MCH1 receptor; [6]): ≤ 100 µM

SMILES: Cc1ccc(Oc2cccc([C@@H](c3nnnn3-c3c(C)cccc3C)N3CCN(C/C=C/c4ccccc4)CC3)c2)cc1 (racemic) [Compound 73, 1-[[1-(2,6-dimethylphenyl)-1H-tetrazol-5-yl]-(3-p-tolyloxyphenyl)methyl]-4-(3-phenylallyl)piperazine]
- IC50 [1, 3]: ≤ 100 µM
- IC50 [2, 5]: ≤ 100 µM

SMILES: CN1CCCC1CCn1nnnc1[C@H](c1ccccc1)N1CCN(C/C=C/c2ccccc2)CC1 (stereo in doubt) [Compound 37, 1-({1-[2-(1-methyl-pyrrolidin-2-yl)ethyl]-1H-tetrazol-5-yl}phenylmethyl)-4-(3-phenylallyl)piperazine]
- IC50 [1, 3]: ≤ 100 µM
- IC50 [2, 5]: ≤ 100 µM

SMILES: Cc1cccc([C@@H](c2nnnn2-c2c(C)cccc2C)N2CCN(C/C=C/c3ccccc3)CC2)n1 (racemic) [Compound 71, 1-[[1-(2,6-dimethylphenyl)-1H-tetrazol-5-yl]-(6-methylpyridin-2-yl)methyl]-4-(3-phenylallyl)piperazine]
- IC50 [1, 3]: ≤ 100 µM
- IC50 [2, 5]: ≤ 100 µM

SMILES: C(=C\c1ccccc1)/CN1CCN([C@@H](c2ccccc2)c2nnnn2CCc2c[nH]c3ccccc23)CC1 (racemic) [Compound 29, 3-[2-(5-{phenyl-[4-(3-phenylallyl)piperazin-1-yl]methyl}tetrazol-1-yl)ethyl]-1H-indole]
- IC50 [1, 3]: ≤ 100 µM
- IC50 [2, 5]: ≤ 100 µM

SMILES: C(=C\c1ccccc1)/CN1CCN([C@@H](c2ccccc2)c2nnnn2Cc2ccccc2)CC1 (racemic) [Compound 15, 1-[(1-benzyl-1H-tetrazol-5-yl)phenylmethyl]-4-(3-phenylallyl)piperazine]
- IC50 [1, 3]: ≤ 100 µM
- IC50 [2, 5]: ≤ 100 µM

SMILES: C(=C\c1ccccc1)/CN1CCN([C@@H](c2ccccc2)c2nnnn2CC2CCCO2)CC1 (stereo in doubt) [Compound 33, 1-(3-phenylallyl)-4-{phenyl-[1-(tetrahydrofuran-2-ylmethyl)-1H-tetrazol-5-yl]methyl}piperazine]
- IC50 [1, 3]: ≤ 100 µM
- IC50 [2, 5]: ≤ 100 µM

SMILES: C(=C\c1ccccc1)/CN1CCN([C@@H](c2ccccc2)c2nnnn2-c2cccc3c2CCCC3)CC1 (racemic) [Compound 38, 1-(3-phenylallyl)-4-{phenyl-[1-(5,6,7,8-tetrahydronaphthalen-1-yl)-1H-tetrazol-5-yl]methyl}piperazine]
- IC50 [1, 3]: ≤ 100 µM
- IC50 [2, 5]: ≤ 100 µM

SMILES: Cc1cccc(C)c1-n1nnnc1[C@H](c1cccc2ccccc12)N1CCN(C/C=C/c2ccccc2)CC1 (racemic) [Compound 46, 1-{[1-(2,6-dimethyiphenyl)-1H-tetrazol-5-yl]naphthalen-1-ylmethyl}-4-(3-phenylallyl)piperazine]
- IC50 [1, 3]: ≤ 100 µM
- IC50 [2, 5]: ≤ 100 µM

SMILES: Cc1cccc(C)c1-n1nnnc1[C@H](c1cccc2c1OCO2)N1CCN(C/C=C/c2ccccc2)CC1 (racemic) [Compound 81, 1-{benzo[1,3]diaxol-4-yl-[1-(2,6-dimethylphenyl)-1H-tetrazol-5-yl]methyl}-4-(3-phenylallyl)piperazine]
- IC50 [1, 3]: ≤ 100 µM
- IC50 [2, 5]: ≤ 100 µM
